Test results taken from US20220273593A1, “COMPOUNDS AND COMPOSITIONS FOR TREATING KIDNEY DISEASE” (JOHANN WOLFGANG GOETHE-UNIVERSITÄT FRANKFURT AM MAIN, priority 2019, published 2022).
“Also recorded” adds a separate entry of the source.

Experiments:
[1] = test system: C57BL/6JRj mice; test: DIO NASH model (Gubra Amylin NASH Diet); type: in vivo; conditions: 12 weeks, DM or MH 10 mg/kg, Obeticholic Acid 30 mg/kg
Experimental: In vivo effects of the compounds (DM and MH) were examined in a NASH model which is outlined by the timeline in FIG. 8A. 41 weeks before treatment NASH was induced in C57BL/6JRj mice by using the Gubra Amylin NASH Diet. After stratification, randomization and base-line measurements the mice were divided into four groups (16 mice per group). Each group was either dosed with 10 mg/kg of DM or MH, 30 mg/kg Obeticholic Acid or vehicle for 12 weeks respectively. […] After four weeks of treatment (FIG. 8C) and after termination (FIG. 8D) biochemical parameters were determined to examine and compare liver health (plasma alanine aminotransferase and plasma aspartate aminotransferase) and lipid homeostasis (plasma triglycerides and plasma total cholesterol) among treatment groups and healthy mice. Furthermore, livers of all animals were analyzed by histopathology and the use of immuno-histochemistry (FIG. 9 and FIG. 10). […] Inflammatory effects in the treatment groups are shown in FIG. 13a in a similar manner including a post-treatment histopathological analysis of inflammatory markers for the different treatment groups in FIG. 13b to investigate the anti-inflammatory in vivo activity of the compounds.

[2] = test system: UUO mice; test: UUO renal fibrosis model, Protocol 2 (interventional treatment); type: in vivo, Male C57Bl/6J mice
Experimental: This study was approved and conducted according to guidelines of the Institutional Animal Care and Use Committee, Medical College of Wisconsin. The Biomedical Resource Center at the Medical College of Wisconsin housed animals with free access to water and food and a 12/12 h light-dark cycle. Male C57B1/6J mice (8-10 weeks old) were purchased from Jackson Laboratories, Bar Harbor, Me. Mice were administered 2.0% isoflurane to induce anesthesia prior to UUO surgery. UUO surgery was conducted with by obstructing the left ureter proximal to the renal pelvis using a 6-o silk tie (Sharma et al., 2016; Kim et al., 2015). Mice with sham surgery went through the same procedure as the UUO mice except that the ureter was not ligated. Two experimental protocols were used to determine renal antifibrotic actions of DM509 and in both protocols the mice were subjected to Sham surgery (n=6/protocol) or Unilateral Ureteral Obstruction (UUO) surgery to induce renal fibrosis. In Protocol 1, mice went through UUO surgery after 24 hours pre-treatment of DM509 (10 mg/kg/d, p.o., n=8) or vehicle (n=8) and blood and kidney tissue were collected at day 10 of the UUO surgery. Mice of the Protocol 2 treated with DM509 (n=8) or vehicle (n=8) after 3 days of UUO surgery and continued for 7 days followed by blood and kidney tissue collection. Kidney samples for histological and immune-histological studies were fixed in 10% buffered formalin and stored at room temperature. Serum and tissue samples for biochemical and gene expression analysis were snap-frozen in liquid nitrogen and stored at […]. Kidney hydroxyproline levels were measured using a commercially available kit (Sigma Aldrich, USA). Blood urea nitrogen (BUN) is measured using a kit from Arbor Assay, USA and monocyte chemoattractant protein-1 (MCP-1) was measured using kit from R&D Systems, Inc., USA. Renal mRNA expression for several fibrotic [fibronectin, α-smooth muscle actin (α-SMA), fibroblast specific protein-1 (FSP-1], tubular injury [NGAL, kidney injury molecule-1 (KIM-1), Claudins1,3,4,5], inflammatory (TNF-α, IL1β, IL-6, ICAM, VCAM) were studied by Real Time-PCR (RT-PCR) analysis. RNeasy Mini Kit (QIAGEN, Calif., USA) was used according to the manufacturer's protocol and messenger RNA (mRNA) was prepared from each sample homogenate. The mRNA samples were quantified spectrophotometrically and 1 μg of total RNA was reverse-transcribed to cDNA using iScript™ Select cDNA Synthesis Kit (Bio-Rad, Hercules, Calif., USA). Gene expression was quantified by iScript One-Step RT-PCR Kit with SYBR green using the MyiQ™ Single Color Real-Time PCR Detection System (Bio-Rad Laboratories, Hercules, Calif., USA). Dissociation curve analysis was accomplished with iQ5 Optical System Software, Version 2.1 (Bio-Rad Laboratories, Hercules, Calif., USA), and each amplified sample analysed for homogeneity. Denaturation was done at 95° C. for 2 min followed by 40 cycles conducted at 95° C. for 10 s and at 60° C. for 30 s. All samples were run in triplicate and fold change in gene expression compared to controls determined by comparative threshold cycle (Ct) method. Target gene expression levels were determined by normalizing Ct values to two housekeeping genes. Statistical analyses were carried out using six samples from each experimental group and comparing to the control group. […] PAS-stained tissue was evaluated for tubular injury whilst PSR was used to determine collagen-positive renal interstitial fibrosis levels. Histopathological changes were scored as published previously and scores presented as a percentage area-fraction relative to the total area analysed. Tubular injury (PAS-cast areas) and interstitial fibrosis (PSR-collagen positive areas) scoring was performed in a blinded fashion by two observers. […]

[3] = test system: UUO mice; test: UUO renal fibrosis model, Protocol 1 (preventive pre-treatment); type: in vivo, Male C57Bl/6J mice
Experimental: This study was approved and conducted according to guidelines of the Institutional Animal Care and Use Committee, Medical College of Wisconsin. The Biomedical Resource Center at the Medical College of Wisconsin housed animals with free access to water and food and a 12/12 h light-dark cycle. Male C57B1/6J mice (8-10 weeks old) were purchased from Jackson Laboratories, Bar Harbor, Me. Mice were administered 2.0% isoflurane to induce anesthesia prior to UUO surgery. UUO surgery was conducted with by obstructing the left ureter proximal to the renal pelvis using a 6-o silk tie (Sharma et al., 2016; Kim et al., 2015). Mice with sham surgery went through the same procedure as the UUO mice except that the ureter was not ligated. Two experimental protocols were used to determine renal antifibrotic actions of DM509 and in both protocols the mice were subjected to Sham surgery (n=6/protocol) or Unilateral Ureteral Obstruction (UUO) surgery to induce renal fibrosis. In Protocol 1, mice went through UUO surgery after 24 hours pre-treatment of DM509 (10 mg/kg/d, p.o., n=8) or vehicle (n=8) and blood and kidney tissue were collected at day 10 of the UUO surgery. Mice of the Protocol 2 treated with DM509 (n=8) or vehicle (n=8) after 3 days of UUO surgery and continued for 7 days followed by blood and kidney tissue collection. […] Kidney hydroxyproline levels were measured using a commercially available kit (Sigma Aldrich, USA). Blood urea nitrogen (BUN) is measured using a kit from Arbor Assay, USA and monocyte chemoattractant protein-1 (MCP-1) was measured using kit from R&D Systems, Inc., USA. Renal mRNA expression for several fibrotic [fibronectin, α-smooth muscle actin (α-SMA), fibroblast specific protein-1 (FSP-1], tubular injury [NGAL, kidney injury molecule-1 (KIM-1), Claudins1,3,4,5], inflammatory (TNF-α, IL1β, IL-6, ICAM, VCAM) were studied by Real Time-PCR (RT-PCR) analysis. RNeasy Mini Kit (QIAGEN, Calif., USA) was used according to the manufacturer's protocol and messenger RNA (mRNA) was prepared from each sample homogenate. The mRNA samples were quantified spectrophotometrically and 1 μg of total RNA was reverse-transcribed to cDNA using iScript™ Select cDNA Synthesis Kit (Bio-Rad, Hercules, Calif., USA). Gene expression was quantified by iScript One-Step RT-PCR Kit with SYBR green using the MyiQ™ Single Color Real-Time PCR Detection System (Bio-Rad Laboratories, Hercules, Calif., USA). Dissociation curve analysis was accomplished with iQ5 Optical System Software, Version 2.1 (Bio-Rad Laboratories, Hercules, Calif., USA), and each amplified sample analysed for homogeneity. […] All samples were run in triplicate and fold change in gene expression compared to controls determined by comparative threshold cycle (Ct) method. […]

[4] = biological target: T1, sEH (Homo sapiens, UniProt P34913); test: sEH inhibition (enzyme); type: biochemical
T1 sequence (P34913 1-555): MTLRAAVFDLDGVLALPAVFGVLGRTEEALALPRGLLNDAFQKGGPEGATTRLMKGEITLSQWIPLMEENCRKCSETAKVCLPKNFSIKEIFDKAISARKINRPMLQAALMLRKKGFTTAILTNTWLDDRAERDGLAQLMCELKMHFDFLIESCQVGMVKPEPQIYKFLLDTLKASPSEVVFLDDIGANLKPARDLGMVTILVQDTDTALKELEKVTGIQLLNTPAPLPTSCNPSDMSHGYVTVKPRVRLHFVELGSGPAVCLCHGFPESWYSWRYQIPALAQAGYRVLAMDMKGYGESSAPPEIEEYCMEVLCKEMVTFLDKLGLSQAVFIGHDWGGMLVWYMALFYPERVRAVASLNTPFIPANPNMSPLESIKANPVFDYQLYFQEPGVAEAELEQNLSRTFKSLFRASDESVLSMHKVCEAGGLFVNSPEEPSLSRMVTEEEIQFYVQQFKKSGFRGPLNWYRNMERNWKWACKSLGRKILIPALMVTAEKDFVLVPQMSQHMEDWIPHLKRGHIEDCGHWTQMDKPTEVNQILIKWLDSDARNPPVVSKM

[5] = biological target: T1, sEH; test: sEH inhibition (cellular); type: cell-based
[6] = biological target: T2, FXR (Homo sapiens, UniProt Q96RI1); test: FXR activation (EC50, efficacy vs GW4064, mode); type: cell-based
T2 sequence (Q96RI1 1-486): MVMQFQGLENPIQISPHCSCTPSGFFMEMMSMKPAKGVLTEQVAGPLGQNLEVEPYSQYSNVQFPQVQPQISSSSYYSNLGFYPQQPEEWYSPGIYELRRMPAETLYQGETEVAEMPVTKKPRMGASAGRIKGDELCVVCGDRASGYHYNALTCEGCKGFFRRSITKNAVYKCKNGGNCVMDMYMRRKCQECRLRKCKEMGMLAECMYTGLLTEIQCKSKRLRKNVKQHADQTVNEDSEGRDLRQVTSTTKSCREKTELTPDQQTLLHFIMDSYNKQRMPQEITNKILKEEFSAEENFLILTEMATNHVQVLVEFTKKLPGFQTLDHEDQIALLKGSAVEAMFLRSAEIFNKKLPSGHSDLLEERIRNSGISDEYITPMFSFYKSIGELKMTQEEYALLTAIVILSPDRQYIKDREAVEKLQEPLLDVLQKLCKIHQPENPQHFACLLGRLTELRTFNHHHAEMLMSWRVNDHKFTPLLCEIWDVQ

[7] = biological target: T2, FXR; test: FXR binding (Kd)
[8] = interventional treatment 10 mg/kg/d, 7 days
[9] = DM509 pre-treatment 10 mg/kg/d p.o., day 10

CC(C)(C)c1ccc(C(=O)NCc2ccc(NS(C)(=O)=O)cc2Cl)cc1 [DM509]
cumulative daily food intake, difference among treatment groups [1]: neither differences in cummulative daily food intake | renal CD45 positive inflammatory cell infiltration (in words) [2]: reduced infiltration of these cells | renal VE-cadherin mRNA and CD31 positive cells (in words) [2]: markedly mitigated the decrease of VE-cadherin and CD31 positive cells | renal inflammation: renal MCP-1 level and cytokine (TNF-α, IL1β, IL6) expression (in words) [2]: markedly mitigated renal inflammation; also recorded: reduced renal inflammation | renal mRNA expression of claudins (in words) [2]: re-stored the mRNA expressions of claudins 1,3,4 and 5; also recorded: restoring claudin expressions | renal mRNA expression of tubular injury markers KIM-1 and NGAL (in words) [2]: mitigated this marked elevation | renal mRNA expression of vascular inflammatory markers ICAM and VCAM (in words) [2]: mitigated elevated expression | peritubular vascular density assessed by CD31 expression (in words) ([2]; interventional treatment): mitigated vascular density loss | EMT: mesenchymal (FSP-1, fibronectin, α-SMA) and epithelial (E-cadherin) marker expressions in kidney (in words) ([2]; interventional treatment 10 mg/kg/d): markedly attenuated EMT; also recorded: markedly reduced EMT | reduction of BUN ([2]; interventional treatment 10 mg/kg/d in drinking water, 7 days): 40% | reduction of collagen positive area [2, 8]: 65% | reduction of kidney hydroxyproline content [2, 8]: 41% | reduction of renal ICAM and VCAM gene expression [2, 8]: 40-50% | reduction of tubular injury markers (KIM-1, NGAL) [2, 8]: 25-50% | renal fibrosis: collagen positive area and renal hydroxyproline content (in words) ([2]; treatment from day 3 after UUO for 7 days): markedly mitigated renal fibrosis | lower collagen positive area than vehicle [3, 9]: 54% | lower renal mRNA expression of fibrotic markers (α-SMA, fibronectin) than vehicle [3, 9]: 40-60% | lower renal mRNA expression of inflammatory markers [3, 9]: 50-80% | kidney fibrosis (in words) ([3]; preventive treatment 10 mg/kg/d): decreased UUO kidney fibrosis | IC50 [4]: 4 nM | IC50 [5]: 1 nM | EC50 [6]: 20 nM | FXR efficacy [6]: 35 % of GW4064 | FXR mode of action [6]: partial agonist

CC(C)(C)c1ccc(C(=O)NCc2ccc(NS(C)(=O)=O)cc2Cl)s1 [MH]
cumulative daily food intake, difference among treatment groups [1]: neither differences in cummulative daily food intake | IC50 [4]: < 1 nM | Kd [7]: 1400 nM | IC50 [5]: < 1 nM | FXR mode of action [6]: selective modulator

CC[C@H]1[C@@H](O)[C@@H]2[C@H](CC[C@]3(C)[C@@H]([C@H](C)CCC(=O)O)CC[C@@H]23)[C@@]2(C)CC[C@@H](O)C[C@@H]12 [Obeticholic Acid, reference compound]
cumulative daily food intake, difference among treatment groups [1]: neither differences in cummulative daily food intake
